Measured values as given in patent US5399748A, “Derivatives of aspartic acid and glutamic acid having anticholecystokinin activity” (James Black Foundation Limited, priority 1990, dated 1995).

Each compound was assayed against T1, CCK-A (Cavia porcellus, UniProt Q63931) (assay: CCK-receptor bioassay, isolated guinea-pig gall-bladder strips, CCK-8 as agonist). Settings: negative logarithm (base 10) of equilibrium dissociation constant (pKB), CCK-8 agonist, test compound incubated 60 minutes.
T1 construct: Isolated, strip preparations were prepared from gall-bladders removed from male Dunkin-Hartley guinea-pigs; from tissue; host or cells: isolated gall-bladder strips of male Dunkin-Hartley guinea-pigs
T1 sequence (Q63931 1-430): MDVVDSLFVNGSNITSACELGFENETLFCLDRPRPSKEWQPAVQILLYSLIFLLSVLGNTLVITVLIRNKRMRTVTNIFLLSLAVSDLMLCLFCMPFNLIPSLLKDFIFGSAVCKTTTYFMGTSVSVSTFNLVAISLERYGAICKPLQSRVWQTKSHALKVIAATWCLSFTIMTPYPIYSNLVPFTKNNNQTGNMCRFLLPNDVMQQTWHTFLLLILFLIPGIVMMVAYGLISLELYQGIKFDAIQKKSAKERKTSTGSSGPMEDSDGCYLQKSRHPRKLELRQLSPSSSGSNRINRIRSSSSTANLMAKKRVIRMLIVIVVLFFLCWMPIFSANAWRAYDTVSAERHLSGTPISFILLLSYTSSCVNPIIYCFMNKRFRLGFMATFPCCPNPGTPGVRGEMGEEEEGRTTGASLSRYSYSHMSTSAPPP
Assay type: cell-based, male Dunkin-Hartley guinea-pigs
Protocol: The compounds were assayed using the CCK-receptor bioassay as follows:
Isolated, strip preparations were prepared from gall-bladders removed from male Dunkin-Hartley guinea-pigs (250-500 g body weight) according to the method of La Morte, W. W., et al., J.P.E.T., 217, (3), 638-644 (1981).
The complete gall-bladder is removed and opened along the longitudinal axis. Strips measuring 3 mm in the longitudinal axis and 1 mm in the transverse axis are cut and then tied with cotton to stainless steel wires. The preparation is connected to a GRASS FTO3 isometric transducer under an initial loading tension of 1 g and is immersed in 20 mls of Krebs solution maintained at 37° C. and gassed with 95% O2 /5% CO2. The composition (mM) of the Krebs solution is as follows: Na^+ 143, K^+ 5.9, Ca^2+ 0.5, Mg^2+ 1.2, Cl^- 128, H2 PO4^- 2.2, HCO3^- 24.9, SO4^2- 1.2, dextrose 10. After 30 mins the preparation is washed. Drug addition begins after an initial 90 min stabilisation period. Responses are measured as changes in tension from that immediately prior to any drug addition. Single cumulative agonist concentration-effect curves, using CCK-8 as agonist, are obtained on each preparation in the absence and presence of test compound which has been incubated for 60 minutes. The antagonist activity of the test compound is estimated and expressed as the negative logarithm (base 10) of the equilibrium dissociation constants (pKB) using the modifications of standard competitive analysis described by Black et al., Br. J. Pharmacol.,86,571-579, (1985) and Shankley et al., Br. J. Pharmacol.,94,264-274 (1988).

pKB | SMILES
5.40 ± 0.18 | O=C(O)C[C@H](NS(=O)(=O)Cc1ccc2ccccc2c1)C(=O)NCCc1ccccc1 [Example 10, Naphthylmethanesulphonyl-L-aspartyl (2-phenethyl)amide]
6.49 ± 0.38 | COc1ccc2cc(S(=O)(=O)N[C@@H](CC(=O)O)C(=O)NCCc3ccccc3)ccc2c1Cl [Example 13, 5-Chloro-6-methoxynaphthalenesulphonyl-L-aspartyl (2-phenethyl)amide]
6.27 ± 0.22 | O=C(O)C[C@H](NS(=O)(=O)/C=C/c1ccccc1)C(=O)NCCc1ccccc1 [Example 22, 2-phenethenylsulphonyl-L-aspartyl (2-phenethyl)amide]

Same assay, conditions: negative logarithm (base 10) of equilibrium dissociation constant (pKB), CCK-8 agonist, test compound incubated 60 minutes, read-out: pK8 versus CCK (gallbladder) (converted)

SMILES | Kb
O=C(O)C[C@H](NS(=O)(=O)c1ccc2ccccc2c1)C(=O)NCCc1ccccc1 [Example 1, 2-Naphthalenesulphonyl-L-aspartyl (2-phenethyl)amide] | 324 nM
O=C(O)C[C@H](NS(=O)(=O)CCc1ccccc1)C(=O)NCCc1ccccc1 [Example 7, 2-phenylethanesulphonyl-L-aspartyl (2-phenethyl)amide] | 3470 nM
O=C(O)C[C@H](NS(=O)(=O)c1ccc(Cl)c(Cl)c1)C(=O)NCCc1ccccc1 [Example 9, 3,4-Dichlorobenzenesulphonyl-L-aspartyl (2-phenethyl)amide] | 1700 nM
COc1ccc2cc(S(=O)(=O)N[C@@H](CC(=O)O)C(=O)NCCc3ccccc3)ccc2c1 [Example 12, 6-Methoxynaphthalenesulphonyl-L-aspartyl (2-phenethyl)amide] | 257 nM
COc1cc2cc(S(=O)(=O)N[C@@H](CC(=O)O)C(=O)NCCc3ccccc3)ccc2c(Cl)c1OC [Example 14, 5-Chloro-6,7-dimethoxynaphthalenesulphonyl-L-aspartyl (2-phenethyl)amide] | 617 nM
O=C(O)C[C@@H](NS(=O)(=O)c1ccc2ccccc2c1)C(=O)NCCc1ccccc1 [Example 15, 2-Naphthalenesulphonyl-D-aspartyl (2-phenethyl)amide] | 1200 nM

Results, then the compound that gave them:

Kb | SMILES
724 nM | O=C(O)CC[C@H](NS(=O)(=O)c1ccc2ccccc2c1)C(=O)NCCc1ccccc1 [Example 16, 2-Naphthalenesulphonyl-L-glutamyl (2-phenethyl)amide]
269 nM | O=C(O)C[C@H](NS(=O)(=O)c1ccc2ccccc2c1)C(=O)NCCc1ccc(F)cc1 [Example 18, 2-Naphthalenesulphonyl-L-aspartyl (2(4-fluorophenethyl)amide)]
1020 nM | COc1ccc(CCNC(=O)[C@H](CC(=O)O)NS(=O)(=O)c2ccc3ccccc3c2)cc1 [Example 19, Naphthalenesulphonyl-L-aspartyl (2-(4-methoxyphenethyl)amide)]
11200 nM | NS(=O)(=O)c1ccc(CCNC(=O)[C@H](CC(=O)O)NS(=O)(=O)c2ccc3ccccc3c2)cc1 [Example 20, 2-Naphthalenesulphonyl-L-aspartyl (2-(4-sulphonamidophenethyl)amide)]
7240 nM | O=C(O)C[C@H](NS(=O)(=O)c1ccc2ccccc2c1)C(=O)N1CCc2ccccc2C1 [Example 21, 2-Naphthalenesulphonyl-L-aspartyl (1,2,3,4-tetrahydroisoquinolin)amide]
105 nM | O=C(O)C[C@H](NS(=O)(=O)c1ccc2ccccc2c1)C(=O)NCCCc1ccccc1 [Example 23, 2 -Naphthalenesulphonyl-L-aspartyl (3-phenylpropyl)amide]
